Assay type in all cases: in vivo
Experiment [1] concerns mice. Description: Chimney test (tranquilizing effect; ability of mice to back up and out of a vertical glass cylinder within 30 seconds). The note with it: Mus musculus, ip, intraperitoneal injection, 50 percent of the mice failed within 30 seconds, read-out: ED50, Ch (chimney test). The text has this: (§1) The free bases and acid addition salts of the novel compounds of Formula I are useful as central nervous system (CNS) depressants when administered to humans and animals.
(§2) Tranquilizing effects of compounds of this invention are shown by the following tests in mice:
Chimney test: [Med. Exp. 4, 145 (1961)]: The test determines the ability of mice to back up and out of a verticle glass cylinder within 30 seconds. At the effective dosage, 50 percent of the mice failed doing it.

For experiment [2], the system named is mice. The experiment in a line: Dish test (tranquilizing effect; mice remaining in Petri dish for more than 3 minutes). The note with it: Mus musculus, ip, 0.05 h, intraperitoneal injection, 50 percent of the mice remain in the dish more than 3 minutes, read-out: ED50, D (dish test). How it is done: as §1, §2
Dish test: Mice in Petri dishes (10 cm. diameter, 5 cm. high, partially embedded in wood shavings), climb out in a very short time, when not treated. Mice remaining in the dish for more than 3 minutes indicates tranquilization. ED50 equals the dose of test compound at which 50 percent of the mice remain in the dish.

For experiment [3], the system named is mice. Description: Pedestal test (tranquilizing effect; mice staying on the pedestal for more than 1 minute). The note with it: Mus musculus, ip, 1 min, intraperitoneal injection, stay on the pedestal for more than 1 minute, read-out: ED50, P (pedestal test). How it is done: as §1, §2
Pedestal test: The untreated mouse leaves a standard pedestal in less than a minute to climb back to the floor of the standard mouse box. Tranquilized mice will stay on the pedestal for more than 1 minute.

In experiment [4] the test system is mice. Description: Nicotine antagonism test (nicotine salicylate 2 mg./kg. overstimulation, convulsions, tonic extensor fits, death). As to conditions: Mus musculus, ip, intraperitoneal injection 30 minutes before nicotine salicylate 2 mg./kg., (3) = death, read-out: ED50, Ni (nicotine antagonism (3) test). How it is done:
as §2
Nicotine antagonism test: Mice in a group of 6 are injected with the test compound. Thirty minutes later the mice including control (untreated) mice are injected with nicotine salicylate (2 mg./kg.). The control mice show overstimulation, i.e., (1) running convulsions followed by (2) tonic extensor fits; followed by (3) death.
Ni = nicotine antagonism (3) test

In experiment [5] the test system is rats. The experiment in a line: Hypotensive activity (manner of Weeks and Jones, Proc. Soc. Exp. Biol. and Med. 104, 646 (1960)). As to conditions: Rattus norvegicus; oral administration to rats; read-out: MED100 (minimal effective dose), hypotensive. The text has this:
The free bases and pharmacologically acceptable acid addition salts of the compounds of Formula I (a, b and c) are also useful in lowering blood pressure when administered to humans and animals. This activity makes them useful in the treatment of essential hypertension. […] Exp. Biol. and Med. 104, 646 (1960). The following compounds typical of this invention have (by oral administration to rats) MED100 (minimal effective dose) as shown in the table below.

The values below come from patent US3932425A, “Benzospiran derivatives” (The Upjohn Company, priority 1974, dated 1976).

Usually ED50 stands for the dose at which the effect has come halfway, by size or by number of responders. Usually minimal effective dose stands for the lowest level tested that produced the effect sought.

Turning to `Cl.O=C(CCCNC1CCC2(CCCc3ccccc32)CC1)c1ccc(F)cc1` (centres unmarked) [4'-Fluoro-4-[3',4'-dihydrospiro[cyclohexane-1,1'(2'H)-naphthalen]-4-ylamino]butyrophenone hydrochloride], the ED50 in experiment [1] came out at 25 mg/kg; in experiment [2], 10 mg/kg; in experiment [3], 16 mg/kg; in experiment [4], 5 mg/kg.

`Cl.O=C(CCCNC1CCC2(CC1)Cc1ccccc1C2O)c1ccc(F)cc1` (centres unmarked) [4'-Fluoro-4-[[1'-hydroxyspiro[cyclohexane-1,2'-indan]-4-yl]amino]butyrophenone hydrochloride]: the minimal effective dose in experiment [5] is 50 mg/kg.

Regarding `Cl.O=C(CCCNC1CCC2(CCc3ccccc3C2)CC1)c1ccc(F)cc1` (centres unmarked) [4'-Fluoro-4-[[3',4'-dihydrospiro[cyclohexane-1,2'(1'H)-naphthalen]-4-yl]amino]butyrophenone hydrochloride], the ED50 in experiment [1] is 9.9 mg/kg; in experiment [2], 9.9 mg/kg; in experiment [3], 12.5 mg/kg; in experiment [4], 7 mg/kg.

`Cl.O=C(CCCNC1CCC2(CC1)Cc1ccccc1C2)c1ccc(F)cc1` [4'-Fluoro-4-[[spiro[cyclohexane-1,2'-indan]-4-yl]amino]butyrophenone hydrochloride]: the minimal effective dose in experiment [5] is 50 mg/kg.

Regarding `CN(CCCC(=O)c1ccc(F)cc1)C1CCC2(CC1)Cc1ccccc1C2.Cl` [4'-Fluoro-4-[methyl[spiro[cyclohexane-1,2'-indan]-4-yl]amino]butyrophenone hydrochloride], the ED50 in experiment [1] came out at 16 mg/kg; in experiment [2] it was 3.6 mg/kg; in experiment [3] it was 9 mg/kg; in experiment [4] it was 4 mg/kg.
